From patent US20230150951A1, “2,5- OR 2,6-DISUBSTITUTED HYDROQUINONE DERIVATIVES WITH AT LEAST ONE CARBOXY, SULFO OR AMIDO GROUP USEFUL AS MEDICAMENTS” (OM PHARMA SA, priority 2020, published 2023)
“Also recorded” adds a separate entry of the source.

Assays:
[1] = Prodrug stability in mouse plasma; assay type: in vitro ADME
[2] = Prodrug stability in human plasma; assay type: in vitro ADME; conditions: read-out: T1/2 (human plasma)
Stability in DMSO = assay type: physicochemical
[3] = cited from earlier work
[4] = tested on: acute pancreatitis murine model; assay: Caerulein-induced acute pancreatitis murine model; assay type: in vivo, Balb/c mice; parameters: Serum IL33 level / Serum TGF-B level: unit not given here
Protocol: Therapeutic efficacy of the compounds according to the present invention was assessed on an acute pancreatitis murine model. Tissue samples were obtained to allow post in-life analysis of pancreatitis parameters. Plasma samples were also obtained to assess animal exposure levels after administration of the compounds.
Animals: A total of 70 female Balb/c mice aged 8-10 weeks weighing approximately 20-25 g were used for the study (Charles River). After 7 days acclimatization, they were allocated into the different groups. […] Cages, bedding, and water were sanitized before use. Animals were provided with Corn-o-cobs enrichment bedding to provide environment enrichment and nesting material. […] The animal holding room were maintained as follows—room temperature at 20-24° C., humidity at 30-70% and a 12 h light/dark cycle used. Although animals used in this study were immuno-competent, preparation of dosing solutions and dosing/weighing of animals were carried out in a sterile biosafety cabinet.
Final formulation was in 5% DMSO, 10% Solutol, 10% PEG400, 75% 0.9% Saline and pH adjusted to 7 with 0.5M NaOH solution.
Final formulation is in 5% DMSO, 10% Solutol, 10% PEG400, 75% 0.9% Saline and pH adjusted to 7 with 0.5M NaOH solution. For per os (PO) dosing IVc-059a is formulated in water. Drug solutions were formulated on the day of dosing.
The purposes of this study were to assess efficacy compounds in an acute pancreatitis model (14 days), generate tissue samples to allow post in-life analysis of pancreatitis parameters and generate four plasma samples to assess animal exposure levels after first and last injection obtained from blood samples taken 1 h and 24 h after first and last injection.
Study Design: On the first study day animals were randomly be assigned to treatment groups, ensuring an equal spread of bodyweight. Mice (except negative control group) were treated with test compounds were given 5 minutes prior to caerulein dosing, followed by injection with caerulein at […] via intraperitoneal route (IP) daily during the study.
Treatment of test compounds were given 5 minutes prior to caerulein dosing.
Sampling and post in-life analyses: at times indicated above a whole blood sample (60 μl) were taken from the lateral tail vein into tubes coated with K2-EDTA. Plasma samples were prepared and stored frozen at −20° C. Plasma samples were sent to client bioanalysis provider Eurofins (FR) for quantification of compound.
Terminal Sampling: Prior to termination animals were weighed. Terminal study animals were culled via CO2 inhalation. A terminal blood sample was taken via cardiac puncture and plasma prepared. Lipase and Amylase activities were measured via ELISA using commercially available ELISA kits. Remaining plasma was stored for future cytokine analyses. Pancreas tissue was resected and weighed, and a section ([…]) snap frozen and analysed for quantification of compound in pancreas sample. A section ([…]) was processed for measurement of MPO activity, IL-33 and TGF-B levels via ELISA. The remainder was fixed in formalin and embedded in paraffin wax. H&E staining was carried out and section assessed using Schmidts standard scoring system, examining: edema, inflammatory infiltration, parenchymal necrosis, haemorrhage. Massons' Trichrome staining was carried out and area covered by fibrotic tissue quantified digitally using QuPath software. Terminal serum samples was used to assess blood chemistry using an IdeXX CHEM15 and LYTE4 clip (4 animals per treatment group).
Histopathology assessment of pancreatic injury based on 4 criteria: Oedema, Inflammatory infiltration, Parenchymal necrosis, Haemorrhage and scored as described below.
Schmidt score is the evaluation of the efficacy of the compounds based on the four histopathology criteria as described in the table below.

[5] = tested on: bleomycin induced pulmonary fibrosis; assay: Bleomycin induced pulmonary fibrosis, 21 days; assay type: in vivo, mice; conditions: day 21; pirfenidone 100 mg/kg, IVc-059a 15 mg/kg
Protocol: A total of 40 male Balb/c mice aged 8-10 weeks were used for the study.
Mice were anesthetized using an IP injection of xylazine and ketamine. Once an appropriate plane of anaesthesia was achieved, animals had 1.0 U/kg bleomycin sulphate instilled via intratracheal route. The total volume of liquid was 50 μL.
Dosing of IV and positive control (pirfenidone) started 24 hours after bleomycin instillation.
Drug solution was formulated immediately prior to dosing. For a dose of 15 mg/kg (enough for 12, 30 g mice) 4.5 mg of compound was weighed out. 75 μl (5%) DMSO added and mixed until drug is in solution. 150 μl (10%) solutol added and vortexed gently, 150 μl (10%) PEG400 added and vortexed gently. 1000 μl PBS (pH7) was added and matrix was measured to ensure pH 7.0 was maintained. Remaining PBS (to a total of 1500 μl) was added. Compound remained in solution. […]
Ashcroft score: Lungs from each animal were FFPE, sectioned and stained with H&E according to an in-house protocol. […] Each lung was scored using the Ashcroft grading system to measure degree of inflammation/fibrosis as per Hubner et al., 2008. […]
An entire lung from each animal was formalin fixed and stored in 70% ethanol. […] Percent area covered by trichrome staining was quantified using Qupath and ImageJ software.

[6] = 1st experiment, caerulein induced, 15 mg/kg IV, Ib-010a and IVc-059a 150 mg/kg PO, Pirfenidone 40 mg/kg IV
[7] = 1st experiment, terminal pancreatic tissue, 15 mg/kg IV, Ib-010a and IVc-059a 150 mg/kg PO, Pirfenidone 40 mg/kg IV
[8] = 1st experiment, terminal serum, 15 mg/kg IV, Ib-010a and IVc-059a 150 mg/kg PO, Pirfenidone 40 mg/kg IV
[9] = second experiment, IV, 15 mg/kg, Pirfenidone 100 mg/kg

Question: What does the source list for CC(OC(=O)c1cc(NC(=O)c2cc(O)c(C(=O)Nc3ccc(O)c(C(=O)OC(C)OC(=O)C(C)(C)C)c3)cc2O)ccc1O)OC(=O)C(C)(C)C (stereo not drawn) [Ic-007a-pive2, 1-(2,2-dimethylpropanoyloxy)ethyl 5-[[4-[[3-[1-(2,2-dimethylpropanoyloxy)ethoxycarbonyl]-4-hydroxy-phenyl]carbamoyl]-2,5-dihydroxy-benzoyl]amino]-2-hydroxybenzoate]?
Answer: remaining after 1 h (mouse plasma) ([1]; 1 h, ester cleaved): 65%; half-life ([1]; read-out: T1/2 (mouse plasma)): 1.04 h; half-life [2]: > 3 h

Question: Which “Stability in DMSO (in words)” value (Stability in DMSO) does the source give for O=C(O)c1cc(O)c(-c2nc3cccc(C(=O)O)c3[nH]2)cc1O [Id-030a, 2-(4-Carboxy-2,5-dihydroxyphenyl)-1H-benzo[d]imidazole-4-carboxylic acid] here?
Answer: unstable in DMSO

Question: With CNC(=O)c1cccc(C(=O)NC)c1O [bis (N-methyl)amide of 2-hydroxyisophthalic acid] as the compound, how does the pKa of phenol [3] read?
Answer: 6.81

Question: What does the source list for Cc1ccc(=O)n(-c2ccccc2)c1 [pirfenidone, reference compound]?
Answer: Acinar cell necrosis (group mean score) [4, 6]: 0.8; Haemorrhage (group mean score) [4, 6]: 0.4; Interstitial oedema (group mean score) [4, 6]: 1.0; Leukocyte infiltration (group mean score) [4, 6]: 2.0; Mean terminal BW (% of initial) [4, 6]: 97.6 % of initial; Mean terminal pancreas weight [4, 6]: 0.136 g; Pancreas histopathology observations (H&E) [4, 6]: Mild oedema observed; also recorded: Mild haemorrhage observed; also recorded: Mild acinar cell necrosis observed; also recorded: Leukocyte infiltration observed; also recorded: Normal islet morphology observed in areas; Schmidt Score (H&E) ([4]; 1st experiment, caerulein induced, 15 mg/kg IV, Ib-010a and IVc-059a 150 mg/kg PO, Pirfenidone 40 mg/kg IV, induced + vehicle = 10, non-induced = 0): 4.1; Pancreas IL33 level [4, 7]: 78 ± 23; Pancreas MPO activity [4, 7]: 1.26; Pancreas TGF-B level [4, 7]: 289 ± 170; Serum IL33 level [4, 8]: 39.16; Serum TGF-B level [4, 8]: 5.5; Serum amylase level [4, 8]: 37.71; Serum lipase level [4, 8]: 7.65; Amylase [4, 9]: 45.171 mU/mL; IL-33 [4, 9]: 226 ± 151 ng/mL; Lipase [4, 9]: 4.541 mU/mL; MPO [4, 9]: 1.68 ± 0.44 U/mg; Schmidt Score [4, 9]: 8 ± 1; TGF-B [4, 9]: 578 ± 230 ng/mL; Trichome staining (Fibrosis % area) [4, 9]: 1.277 ± 0.888 % area; Lipase activity in serum ([4]; second experiment, pirfenidone 100 mg/kg, compounds 15 mg/k, vs vehicle treated animals): significantly lower than that in vehicle treated animals; MPO activity in pancreatic tissue ([4]; second experiment, vs induced vehicle treated controls): significantly lower than induced vehicle treated controls; Onset of fibrosis in mouse lung (Ashcroft score) [5]: reduced the onset of fibrosis in mouse lung
